Where “and” joins values, the source holds several entries; their conditions need not be identical. Equal entries are not always repeated. Entries after “also recorded” stand apart in the source; their conditions may differ. Where two headings read alike, the source gives them in different places.
Legend:
[1] = target: T1, Zika NS2B-NS3pro (unlinked complex) (Zika virus, UniProt A0A024B7W1); assay: Inhibition of unlinked Zika NS2B-NS3pro, fluorogenic substrate Bz-nKRR-AMC; assay type: biochemical; conditions: for IC50 / Inhibition at 500 μM: Bz-nKRR-AMC 250 μM; for Inhibition at 500 μM: initial screening, compound 500 μM, protease 50 nM; for inhibitory activity (in words): compound concentration up to 500 μM
T1 construct: DNA fragments encoding the isolated NS3 (14–185) and NS2B (48–100) with the transmembrane regions removed; His-tag (cleaved yes); made in house; host or cells: Escherichia coli BL21 (DE3) Star
T1 sequence (A0A024B7W1 1420-1472): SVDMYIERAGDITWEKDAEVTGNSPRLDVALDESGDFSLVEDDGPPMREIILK
T1 sequence (A0A024B7W1 1516-1687): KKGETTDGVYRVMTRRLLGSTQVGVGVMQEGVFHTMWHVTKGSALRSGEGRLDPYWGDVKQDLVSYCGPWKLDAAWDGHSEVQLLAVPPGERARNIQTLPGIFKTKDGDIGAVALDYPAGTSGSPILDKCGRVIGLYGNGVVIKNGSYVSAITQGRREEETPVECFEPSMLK
Procedure: Due to the urgency to fight ZIKV infection, we attempted to screen the inhibitors of Zika NS2B-NS3pro from natural products rich in edible plants. To better reflect the situation in vivo, here we selected the unlinked Zika NS2B-NS3pro complex for screening. However as most natural products are largely insoluble in aqueous buffers, we have assessed effects of DMSO and glycerol on the conformations (Fig 1E and 1F) as well as on catalytic parameters (Table 1). Consequently, 50 mM Tris buffer at pH 8.5 + 20% Glycerol was utilized as the screening buffer as it could dissolve all natural products in the present study but has no significant effect on the conformation of Zika NS2B-NS3pro (Fig 1F).
To allow comparison with the NS2B-NS3pro complexes of four Dengue serotypes (17), we selected three fluorophore-tagged substrates previously used (17): namely Bz-Nle-Lys-Arg-Arg-AMC, Boc-Gly-Arg-Arg-AMC and Boc-Gly-Lys-Arg-AMC (Bachem AG, Bubendorf), which were dissolved in dimethyl sulfoxide for preparing stock solutions (100 mM). All enzymatic experiments were performed in triplicate and data are presented as mean ± SD, while IC50, Km and Ki were obtained by fitting with GraphPad Prism 7.0 [61].
All natural products were purchased from Sigma-Aldrich, which are all HPLC purified. After optimization of buffer conditions, here, we selected 50 mM Tris-HCl buffer at pH 8.5 in the presence of 20% glycerol which could dissolve all natural products. Briefly, for the initial screening, the Zika protease at 50 nM was preincubated for 30 min with different compounds at final concentrations of 5 and 500 μM dissolved in 1 μl DMSO, followed by adding Bz-nKRR-AMC to 250 μM to initiate reaction. Only the compounds showing significant inhibitions at both concentrations were subjected to further determination of IC50 and Ki.
For Ki determination, the assay was performed with different final concentrations of the inhibitors and substrate. Briefly, the Zika protease at 50 nM was preincubated with the inhibitor at different concentrations for 30 min at 37°C. Subsequently, the reaction was initiated by addition of the corresponding concentration series of the substrate. All measurements were performed in triplicate and data are presented as mean ± SD. The Ki was obtained by fitting in the non-competitive inhibition mode with GraphPad Prism 7.0, with an equation: Vmaxinh = Vmax/(1+I/Ki), while I is the concentration of inhibitor [61].

Dengue-2 NS2B-NS3pro = target: Dengue-2 NS2B-NS3pro; set-up: method as in PMID 25564380; conditions: allosteric inhibition, previously characterized; cited from earlier work
linked Zika NS2B-NS3pro = conditions: linked enzyme, assay buffer pH 7; cited from earlier work
[2] = IC50, protease 50 nM preincubated 30 min at 37°C, 50 mM Tris-HCl pH 8.5 + 20% glycerol, mean ± SD, triplicate
[3] = Ki, non-competitive fit, protease 50 nM preincubated 30 min at 37°C, 50 mM Tris-HCl pH 8.5 + 20% glycerol, mean ± SD, triplicate
[4] = 50 mM Tris-HCl pH 8.5 + 20% glycerol
[5] = non-competitive fit, protease 50 nM preincubated 30 min at 37°C, 50 mM Tris-HCl pH 8.5 + 20% glycerol, mean ± SD, triplicate, read-out: Ki
[6] = protease 50 nM preincubated 30 min at 37°C, 50 mM Tris-HCl pH 8.5 + 20% glycerol, mean ± SD, triplicate, read-out: IC50

| SMILES | IC50 [1, 2] | Inhibition at 500 μM [1, 4] | Ki [1, 5] | IC50 [1, 6] | inhibitory activity (in words) [1] | also measured |
| --- | --- | --- | --- | --- | --- | --- |
| COc1cc(-c2oc3cc(O)cc(O)c3c(=O)c2O)ccc1O [Isorhamnetin] | 15.5 µM | Yes |  |  |  | Ki [1, 3]: 6.22 µM and 6.2 µM |
| O=c1cc(-c2ccc(O)c(O)c2)oc2cc(O)cc(O)c12 [Luteolin] |  | Yes | 1.4 ± 0.1 µM | 2.7 ± 0.3 µM |  |  |
| O=c1c(O)c(-c2ccc(O)c(O)c2)oc2cc(O)cc(O)c12 [Quercetin] |  | Yes | 1.12 µM and 1.1 µM | 2.42 µM and 2.4 µM |  | Ki (Dengue-2 NS2B-NS3pro): 20.7 µM |
| Oc1cc(O)c2c(c1)O[C@H](c1ccc(O)c(O)c1)[C@@H](O)C2 [Catechin] |  | No |  |  | inactive | inhibitory activity (in words) ([1]; listed as Catechine): no inhibitory activity was detected |
| Oc1ccc(/C=C/c2cc(O)cc(O)c2)cc1 [Resveratrol] |  | No |  |  | no inhibitory effect was detected; also recorded: no detectable inhibitory activity |  |
| O=c1cc(-c2ccc(O)cc2)oc2cc(O)cc(O)c12 [Apigenin] | 56.3 ± 0.9 µM | Yes |  | 56.3 µM |  | Ki [1, 3]: 34 µM |
| O=c1c(-c2ccc(O)cc2)coc2cc(O)ccc12 [Daidzein] |  | No |  |  | no inhibitory activity was detected; also recorded: inactive |  |
| O=c1c(O)c(-c2cc(O)c(O)c(O)c2)oc2cc(O)cc(O)c12 [Myricetin] | 1.26 µM | Yes | 0.8 ± 0.1 µM | 1.3 ± 0.1 µM |  | Ki ([1]; Ki, non-competitive mode, unlinked enzyme, pH 8.5): 0.77 µM; Ki (Dengue-2 NS2B-NS3pro): 4.7 µM; Ki (linked Zika NS2B-NS3pro): 8.9 µM |
| COc1cc(/C=C/C(=O)CC(=O)/C=C/c2ccc(O)c(OC)c2)ccc1O [Curcumin] |  | Yes | 2.61 µM and 2.6 µM | 3.45 µM and 3.5 µM |  |  |
